Reference: publication PMC11796312, “Multifunctional, Fluorene‐Based Modulator of Cholinergic and GABAergic Neurotransmission as a Novel Drug Candidate for Palliative Treatment of Alzheimer's Disease” (Angewandte Chemie (International Ed. in English), 2024)
“And” between values parts separate entries of the source, which are not always exact repeats. Equal entries are not always repeated. “Also recorded” adds a separate entry of the source.

Tests used:
ICR-CD1 mice = experiment: Acute toxicity study i.p. (MTD, biochemistry, histopathology); assay type: in vivo; set-up: key to prostration / tremor / convulsions / hyper/hypoventilation / drop of eyelids / ataxia / stooped posture: mild (+); moderate (++); severe (+++); conditions: for stooped posture: Female 1
Experimental: (§1) Toxicology and pharmacokinetic in vivo study
(§2) ICR-CD1 mice weighing 20–25 g were purchased from Velaz (Prague, Czech Republic).
(§3) They were kept in an air-conditioned room with the light from 07:00 to 19:00 hours and were allowed access to standard food and tap water ad libitum. The mice were divided into groups […]
(§4) Ethical approval statement
(§5) The experimental animals were handled under the supervision of the Ethics Committee of the […]
(§6) 706288/2023-1457) and the treatment of animals was in full accordance with ethical standards laid down in respective Czech and EU regulations.
(§7) Design of in vivo experiments
(§8) Acute toxicity study – Maximal tolerated dose, biochemical analysis, and histopathologic […]
(§9) Mice (ICR-CD1, Velaz, Prague, Czech Republic) were randomly assigned to the experimental groups of two males and two females per one applied dose of 6. 6 was administered intraperitoneally (i.p., 0.1 mL/10 g of animal weight; 1% Tween 80). Several doses were administered to identify the toxic profile of tested compounds and establish the Maximal Tolerated Dose (MTD, i.p.). Treated animals were intensively observed for signs of toxicity, such as respiratory, cardiovascular, and nervous system disability. Weight loss or reduced food consumption was assessed according to the FELASA classification[39] in the first two hours and then periodically for the subsequent 46 hours. The toxicity signs were classified according to a previously published study.[40]
(§10) All animals surviving the 48 hours were deeply euthanized by CO2 and subjected to basic macroscopic necropsy. The blood was collected for biochemical analysis, and selected organs (kidney and liver) were collected for histopathologic examination.
(§11) Venous blood was collected into heparinized tubes (Scanlab Systems, Prague, Czech Republic). Plasma was subsequently separated (3,000 × g for 10 min, 4 °C) using centrifuge U-320R (Boeco, Hamburg, Germany). The concentration of urea and creatinine and the activity of alanine aminotransferase (ALT), aspartate aminotransferase (AST), alkaline […]
(§12) phosphatase (ALP), amylase, and lactate dehydrogenase (LDH) were measured in the accredited biochemical laboratory of the Department of Clinical Biochemistry and Diagnostics, University Hospital, Hradec Kralove, Czech Republic. Statistical data analysis was performed through IBM SPSS Statistics version 26 (IBM, Armonk, NY, USA) using the Kolmogorov-Smirnov and Shapiro-Wilk tests to test data normality. Due to normally distributed data, the Student´s t-test was used to assess the differences compared with the control group (p ≤ 0.05).
(§13) Samples of the liver and kidney were used for standard histopathological examination. Organs were fixed with 10% neutral buffered formalin (Bamed s.r.o., Ceske Budejovice, Czech Republic), histologically processed, and stained with hematoxylin and eosin (both Merck) according to Pejchal et al.[41] The histopathological changes were evaluated using a BX-51 microscope (Olympus, Tokyo, Japan). […]
(§14) The time intervals
(§15) PK studies). The samples were centrifuged at 3,000 × g for 10 min (10 °C), and the plasma samples were stored at -80 °C until the HPLC analysis.

[1] = as above; assay type: in vivo, mice; set-up: key to prostration / tremor / convulsions / hyper/hypoventilation / drop of eyelids / ataxia / stooped posture: mild (+); moderate (++); severe (+++); conditions: both sexes, ICR-CD1, mouse, in vivo, ip, male and female mice; read-out: maximal tolerated dose (MTD)
Experimental: as §1, §2, §3, §4, §5, §6, §7, §8, §9, §10, §11, §12, §13, §14, §15

mGAT1 = mGAT1 (Mus musculus, UniProt P31648); experiment: [3H]GABA uptake assay, mGAT1; assay type: cell-based
[2] = 20 mg/kg i.p., Male 1, Female 1, Female 2
[3] = 40 mg/kg i.p., Male 1, Female 1, Female 2
[4] = 60 mg/kg i.p., Male 1, Male 2, Female 2
[5] = female mice, 10 mg/kg, Female 1, Female 2
[6] = female mice, 20 mg/kg, Female 1, Female 2
[7] = female mice, 40 mg/kg, Female 1, Female 2
[8] = female mice, 60 mg/kg, Female 1, Female 2
[9] = male mice, 10 mg/kg i.p., Male 1, Male 2
[10] = male mice, 20 mg/kg i.p., Male 1
[11] = male mice, 20 mg/kg i.p., Male 1, Male 2
[12] = male mice, 40 mg/kg i.p., Male 1, Male 2
[13] = male mice, 60 mg/kg i.p., Male 1, Male 2
[14] = male mice, 60 mg/kg i.p., Male 1, Male 2, 60 mg/kg

O[C@H](CNCC1CC1)[C@H](Cc1ccccc1)NC1c2ccccc2-c2ccccc21 [Compound 6]
signs of poisoning at MTD (ICR-CD1 mice; 10 mg/kg i.p.): mild to moderate signs of poisoning may occur | ALP, plasma (ICR-CD1 mice; 10 mg/kg i.p., 48 h): 68.4 ± 27.2 U/L | ALT, plasma (ICR-CD1 mice; 10 mg/kg i.p., 48 h): 29.0 ± 6.5 U/L | AST, plasma (ICR-CD1 mice; 10 mg/kg i.p., 48 h): 56.8 ± 6.6 U/L | Amylase, plasma (ICR-CD1 mice; 10 mg/kg i.p., 48 h): 2960 ± 500 U/L and 2955 ± 501 U/L | LDH, plasma (ICR-CD1 mice; 10 mg/kg i.p., 48 h): 275 ± 94 U/L | Urea, plasma (ICR-CD1 mice; 10 mg/kg i.p., 48 h): 33.8 ± 8.2 mg/dL | blood biochemistry vs control (ICR-CD1 mice; 10 mg/kg i.p., 48 h, Student's t-test): No significant differences | Necropsy (ICR-CD1 mice; 10 mg/kg i.p., 48 h, table lines in order Male 1, Male 2, Female 1, Female 2): no macroscopic pathology; also recorded: no findings; also recorded: mild hyperemia in the peritoneal cavity | Histopathological findings, liver and renal tissue (ICR-CD1 mice; 10 mg/kg i.p., table lines in order Male 1, Male 2, Female 1, Female 2): no tissue damage; also recorded: dg: mild peritoneal irritation; also recorded: no findings | ALP, plasma (ICR-CD1 mice; 20 mg/kg i.p., N = 3): 60.4 ± 28.6 U/L | ALT, plasma (ICR-CD1 mice; 20 mg/kg i.p., N = 3): 27.0 ± 15.6 U/L | AST, plasma (ICR-CD1 mice; 20 mg/kg i.p., N = 3): 55.6 ± 6.7 U/L | Amylase, plasma (ICR-CD1 mice; 20 mg/kg i.p., N = 3): 3129 ± 444 U/L | LDH, plasma (ICR-CD1 mice; 20 mg/kg i.p., N = 3): 223 ± 38 U/L | Urea, plasma (ICR-CD1 mice; 20 mg/kg i.p., N = 3): 31.8 ± 6.7 mg/dL | Histopathological findings, liver and renal tissue (ICR-CD1 mice; [2]): dg: peritonitis | Necropsy (ICR-CD1 mice; [2]): moderate hyperemia in the abdominal cavity | ALP, plasma (ICR-CD1 mice; 40 mg/kg i.p., N = 3): 63.5 ± 26.9 U/L | ALT, plasma (ICR-CD1 mice; 40 mg/kg i.p., N = 3): 57.1 ± 16.5 U/L | AST, plasma (ICR-CD1 mice; 40 mg/kg i.p., N = 3): 82.4 ± 54.0 U/L | Amylase, plasma (ICR-CD1 mice; 40 mg/kg i.p., N = 3): 3485 ± 894 U/L | LDH, plasma (ICR-CD1 mice; 40 mg/kg i.p., N = 3): 511 ± 423 U/L | Urea, plasma (ICR-CD1 mice; 40 mg/kg i.p., N = 3): 93.6 ± 60.4 mg/dL | Histopathological findings, liver and renal tissue (ICR-CD1 mice; [3]): dg: severe peritonitis | Necropsy (ICR-CD1 mice; [3]): dilatation of small and large intestine loops; also recorded: dilatation of the stomach, small and large | ALP, plasma (ICR-CD1 mice; 60 mg/kg i.p., N = 3): 71.4 ± 23.4 U/L | ALT, plasma (ICR-CD1 mice; 60 mg/kg i.p., N = 3): 230.4 ± 140.7 U/L | AST, plasma (ICR-CD1 mice; 60 mg/kg i.p., N = 3): 318.0 ± 213.7 U/L | Amylase, plasma (ICR-CD1 mice; 60 mg/kg i.p., N = 3): 3723 ± 448 U/L | LDH, plasma (ICR-CD1 mice; 60 mg/kg i.p., N = 3): 1101 ± 562 U/L | Urea, plasma (ICR-CD1 mice; 60 mg/kg i.p., N = 3): 142.9 ± 145.2 mg/dL | Histopathological findings, liver and renal tissue (ICR-CD1 mice; [4]): dg: severe peritonitis | Necropsy (ICR-CD1 mice; [4]): dilatation of small and large intestine loops | hyper/hypoventilation (ICR-CD1 mice; female mice, 10 mg/kg i.p., lines in order Female 1, Female 2): + | drop of eyelids (ICR-CD1 mice; [5]): + | prostration (ICR-CD1 mice; [5]): + | tremor (ICR-CD1 mice; [5]): + and ++ | convulsions (ICR-CD1 mice; female mice, 10 mg/kg, Female 2): + | stooped posture (ICR-CD1 mice; female mice, 20 mg/kg): + | drop of eyelids (ICR-CD1 mice; [6]): + | hyper/hypoventilation (ICR-CD1 mice; [6]): + | prostration (ICR-CD1 mice; [6]): ++ | tremor (ICR-CD1 mice; [6]): + and ++ | weight at 24 h (%) (ICR-CD1 mice; [6]): -4.2% and -1.8% | weight at 48 h (%) (ICR-CD1 mice; [6]): -6.5% and 0.0% | drop of eyelids (ICR-CD1 mice; [7]): + | hyper/hypoventilation (ICR-CD1 mice; [7]): ++ | tremor (ICR-CD1 mice; [7]): + | weight at 24 h (%) (ICR-CD1 mice; [7]): -4.5% and -3.5% | weight at 48 h (%) (ICR-CD1 mice; [7]): -9.1% and -7.1% | stooped posture (ICR-CD1 mice; female mice, 60 mg/kg): + | drop of eyelids (ICR-CD1 mice; [8]): + | hyper/hypoventilation (ICR-CD1 mice; [8]): ++ | tremor (ICR-CD1 mice; [8]): + | weight at 24 h (%) (ICR-CD1 mice; [8]): -5.0% and -6.6% | mortality (ICR-CD1 mice; female mice, 60 mg/kg, Female 1, before the 48-hour check-up): died overnight | weight at 48 h (%) (ICR-CD1 mice; female mice, 60 mg/kg, Female 2): -7.5% | prostration (ICR-CD1 mice; [9]): + | tremor (ICR-CD1 mice; [9]): + | hyper/hypoventilation (ICR-CD1 mice; male mice, 10 mg/kg i.p., lines in order Male 1, Male 2): + | weight at 24 h (%) (ICR-CD1 mice; [10]): -0.2% | weight at 48 h (%) (ICR-CD1 mice; [10]): +1.0% | ataxia (ICR-CD1 mice; [11]): + | drop of eyelids (ICR-CD1 mice; [11]): + | hyper/hypoventilation (ICR-CD1 mice; [11]): + | prostration (ICR-CD1 mice; [11]): ++ | tremor (ICR-CD1 mice; [11]): + | convulsions (ICR-CD1 mice; male mice, 20 mg/kg i.p., Male 2): +++ | mortality (ICR-CD1 mice; male mice, 20 mg/kg i.p., Male 2, before the 24-hour check-up): died overnight | weight at 48 h (%) (ICR-CD1 mice; male mice, 40 mg/kg i.p., Male 1): -6.7% | drop of eyelids (ICR-CD1 mice; [12]): + | hyper/hypoventilation (ICR-CD1 mice; [12]): ++ | prostration (ICR-CD1 mice; [12]): ++ | tremor (ICR-CD1 mice; [12]): + | weight at 24 h (%) (ICR-CD1 mice; male mice, 40 mg/kg i.p., Male 1, Male 2, 40 mg/kg): -6.1% and -7.0% | mortality (ICR-CD1 mice; male mice, 40 mg/kg i.p., Male 2, before the 48-hour check-up): died overnight | ataxia (ICR-CD1 mice; male mice, 60 mg/kg i.p., Male 1): + | drop of eyelids (ICR-CD1 mice; [13]): + | hyper/hypoventilation (ICR-CD1 mice; [13]): ++ | prostration (ICR-CD1 mice; [13]): +++ | tremor (ICR-CD1 mice; [13]): + | weight at 24 h (%) (ICR-CD1 mice; [14]): -3.6% and -10.5% | weight at 48 h (%) (ICR-CD1 mice; [14]): -16.0% and -15.6% | MTD at 48 h [1]: 10 mg/kg | IC50 (mGAT1): 11 µM
